Read-outs that look alike come from different tables or passages of the source.
How the values were obtained:
HIV-1 Nef = biological target: T1, HIV-1 Nef (Human immunodeficiency virus 1, UniProt P03406); assay: Anti-Nef activity: reversal of Nef-dependent MHC-I HLA-A2 downmodulation, flow cytometry; type: cell-based
T1 sequence (P03406 2-206): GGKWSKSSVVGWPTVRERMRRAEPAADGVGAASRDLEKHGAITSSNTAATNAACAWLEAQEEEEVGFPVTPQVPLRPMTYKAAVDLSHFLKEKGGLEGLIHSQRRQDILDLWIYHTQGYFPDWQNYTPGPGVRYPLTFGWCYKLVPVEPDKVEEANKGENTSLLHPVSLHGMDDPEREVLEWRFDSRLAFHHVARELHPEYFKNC
Description: Determination of anti-Nef activity: To identify molecules with enhanced Nef inhibition, decreased toxicity and decreased inhibition of lysosomes, the analogs of the disclosure are screened initially for Nef inhibitory activity using a high throughput assay in HIV-1 infected CEM-A2 cells. These cells are infected with an HIV-1 reporter construct for 48 hours and then exposed to potential inhibitors for 24 hours. Cells are harvested and stained for flow cytometric analysis of HLA-A2 surface expression, and the fold downmodulation of HLA-A2 are calculated by comparing expression on uninfected cells to that on infected cells.
PBMCs is isolated from leukopaks, CD8-depleted, and stimulated with PHA.
To assess their toxicity, an MTT assay was used, which measures […] dehydrogenase activity. Metabolically active cells reduce MTT to MTT-formazan leading to a color change. For this analysis, PHA-activated primary human PBMCs were exposed to a range of concentrations of each drug continuously for 72 hours of culture.

[1] = biological target: V-ATPase-dependent lysosomal acidification; assay: cells; type: cell-based, human; conditions: read-out: Lyso IC50
Source text: Determine effect on V-ATPase activity: Plecomacrolides are known inhibitors of V-ATPase that neutralize normally acidified lysosomes. […] Thus, analogs of the disclosure are further characterized by measuring their effects on lysosome acidification.
LysoTracker® is a fluorophore linked to a weak base that is partially protonated at neutral pH. This form of the probe is capable of freely permeating cell membranes of live cells. In acidic compartments, protonation creates a form that was impermeable causing the probe to accumulate inside the lysosome.

[2] = tested on: HIV-1 WT infected primary T cells; assay: In vitro flow cytometric anti-HIV-1 CTL killing assay; type: cell-based, human; conditions: low dose CMA (0.5 nM in FIG. 8); anti-HIV-1 CTL clone
Description: Numbers are mean percent infected cell survival after a 4 hour incubation with a 2:1 effector:target (E:T) ratio of an anti-HIV-1 CTL clone recognizing Gag SL9 epitope (n=2).
Mean +/− standard deviation is shown n=2. E:T, effector:target.
Therefore, the effect of promising Nef inhibitor analogs is generated as disclosed herein on anti-HIV-1 CTL killing using the in vitro flow cytometric CTL killing assay developed previously (FIGS. 1 and 8 ? (Collins et al., 1998). These studies utilize CTL clones reactive against various HIV-1 epitopes known to be affected by Nef (Collins et al., 1998).

[3] = tested on: Nef-dependent degradation of MHC-I and CD4; assay: Western blot of Nef-dependent protein degradation in sorted HIV-1 infected primary T cells; type: cell-based, human
C57BL/6J and BALB/c mice = conditions: five consecutive doses at 12 mg/kg; cited from earlier work
C57BL/6J mice = conditions: cited from earlier work
[4] = 24 hr Lysotracker IC50, 1000 nM set as activity threshold (FIG. 11-14)
[5] = HIV-1 infected primary T lymphocytes
[6] = intraperitoneal daily over three days, 10 mg/kg

SMILES	IC50 [1, 4]	restoration of MHC-I HLA-A2 surface expression (HIV-1 Nef; [5])	overall body weight (C57BL/6J and BALB/c mice)	pancreatic islet cell size (C57BL/6J and BALB/c mice)	random blood glucose (C57BL/6J and BALB/c mice)	other results
C/C=C/C1OC(O)(C(C)C(O)C(C)C2OC(=O)/C(OC)=C/C(C)=C/C(C)C(O)C(CC)C(O)C(C)C/C(C)=C/C=C/C2OC)CC(OC(=O)/C=C/C(=O)NC2=C(O)CCC2=O)C1C (centres unmarked) [Virustomycin, reference compound]	3.68 nM	–	–	–	–	IC50 (HIV-1 Nef): 0.688 nM
C/C=C/[C@H]1O[C@@](O)([C@@H](C)[C@H](O)[C@H](C)[C@H]2OC(=O)/C(OC)=C/C(C)=C/[C@@H](C)[C@@H](O)[C@@H](CC)[C@@H](O)[C@H](C)C/C(C)=C/C=C/[C@@H]2OC)C[C@@H](O[C@H]2C[C@@H](O)[C@H](OC(N)=O)[C@@H](C)O2)[C@@H]1C [CMA, Concanamycin A]	0.977 nM	restore MHC-I HLA-A2	not affected	decrease in pancreatic islet cell size	did not cause significant variations	concentration with activity in restoring MHC-I HLA-A2 (HIV-1 Nef; HIV-1 infected primary T lymphocytes, FIG. 2): ~100 pM; CTL killing of HIV-1 WT infected primary T cells [2]: increases CTL killing; Nef-dependent degradation of MHC-I ([3]; antibody HC-10, FIG. 9): selectively reverses; Nef-mediated CD4 degradation ([3]; concentrations sufficient to reverse Nef-mediated degradation of MHC-I, FIG. 9): did not significantly alter
CO/C1=C\C(C)=C\[C@@H](C)[C@@H](O)[C@@H](C)C/C(C)=C/C=C/[C@H](OC)[C@@H]([C@@H](C)[C@@H](O)[C@H](C)[C@@]2(O)C[C@@H](O)[C@H](C)[C@@H](C(C)C)O2)OC1=O [BafA1, Bafilomycin A1]	45.2 nM	restore MHC-I HLA-A2	not affected	decrease in pancreatic islet cell size	did not cause significant variations	weight loss (C57BL/6J mice; 25 mg/kg, within 12 days of injection): 30%; body weight (C57BL/6J mice; [6]): maintained a normal weight; liver toxicity (C57BL/6J mice; [6]): no evidence of liver toxicity; liver enzymes (C57BL/6J mice; intraperitoneal, 25 mg/kg): increases in liver enzymes indicative of liver damage
C/C=C/[C@H]1O[C@@](O)([C@@H](C)[C@H](O)[C@H](C)[C@H]2OC(=O)/C(OC)=C/C(C)=C/[C@@H](C)[C@@H](O)[C@@H](CC)[C@@H](O)[C@H](C)C/C(C)=C/C=C/[C@@H]2OC)C[C@@H](O)[C@@H]1C [CMF, Concanamycin F]	–	–	–	–	–	IC50 ([1]; Homo sapiens, PBMC, 24 h): 6.27 nM
C/C=C/[C@H]1O[C@@H]([C@@H](C)[C@H](O)[C@H](C)[C@H]2OC(=O)/C(OC)=C/C(C)=C/[C@@H](C)[C@@H](O)[C@@H](CC)[C@@H](O)[C@H](C)C/C(C)=C/C=C/[C@@H]2OC)C[C@@H](O)[C@@H]1C [21-Deoxy CMF, 21-deoxy concanamycin F]	23.3 nM	–	–	–	–	IC50 (HIV-1 Nef; 24 hr Nef activity IC50, independent donors, 1000 nM set as activity threshold (FIG. 11-14)): 4.29 nM

Reference: patent publication US20240067634A1, “INHIBITORS OF NEF DOWNMODULATION” (priority 2020, published 2024)
